Source: publication PMC10052977, “α,ω-Diacyl-Substituted Analogues of Natural and Unnatural Polyamines: Identification of Potent Bactericides That Selectively Target Bacterial Membranes” (International Journal of Molecular Sciences, 2023)

Columns and labels:
[1] = Cytotoxicity assay (resazurin); format: cell-based, human; settings: human; HEK293 cells; mean (n = 2); highest dose tested 32 μg/mL; read-out: Cytotoxicity (concentration of compound at 50% cytotoxicity, IC50)
[2] = test system: Candida albicans ATCC90028; experiment: Antifungal MIC, CO-ADD; format: cell-based; settings: mean (n = 2)
Description: (§1) For the antifungal assay, fungi strains were cultured for 3 days on YPD agar at 30 °C. A yeast suspension of 1 × 10^6 to 5 × 10^6 CFU/mL was prepared from five colonies. These stock suspensions were diluted with yeast nitrogen base (YNB) (Becton Dickinson, 233520) broth to a final concentration of 2.5 × 10^3 CFU/mL. […] Plates were covered and incubated at 35 °C for 36 h without shaking. C. albicans MICs were determined by measuring the absorbance at OD530. […] Fluconazole was used as a positive fungal inhibitor standard for C. albicans and C. neoformans. […] Quality control (QC) of the assays was determined by antimicrobial controls and Z’-factor (using positive and negative controls).

[3] = test system: Cryptococcus neoformans ATCC208821; experiment: Antifungal MIC, CO-ADD; format: cell-based; settings: ATCC208821, Cryptococcus neoformans ATCC208821, mean (n = 2)
Description: as §1

[4] = test system: Staphylococcus aureus ATCC 25923 or ATCC 29213; experiment: MIC, broth dilution (CA-SFM); format: cell-based; settings: Staphylococcus aureus ATCC 25923 or ATCC 29213; mean (n = 3); read-out: MIC S. a
[5] = test system: Escherichia coli ATCC 25922; experiment: MIC, CO-ADD broth microdilution; format: cell-based; settings: ATCC25922, mean (n = 2)
[6] = test system: MRSA ATCC 43300; experiment: MIC, CO-ADD broth microdilution; format: cell-based, Staphylococcus aureus; settings: for MIC: Staphylococcus aureus, MRSA ATCC 43300, mean (n = 2), read-out: MIC MRSA
[7] = test system: Klebsiella pneumoniae ATCC700603; experiment: MIC, CO-ADD broth microdilution; format: cell-based; settings: mean (n = 2)
[8] = test system: human red blood cells; experiment: Hemolytic assay; format: cell-based; settings: mean (n = 2)
Description: Human whole blood was washed three times with 3 volumes of 0.9% NaCl and then resuspended in same to a concentration of 0.5 × 10^8 cells/mL, as determined by manual cell count in a Neubauer hemocytometer. The washed cells were then added to the 384-well compound-containing plates for a final volume of 50 μL. After a 10 min shake on a plate shaker, the plates were then incubated for 1 h at 37 °C. After incubation, the plates were centrifuged at 1000× g for 10 min to pellet cells and debris; 25 μL of the supernatant was then transferred to a polystyrene 384-well assay plate. Hemolysis was determined by measuring the supernatant absorbance at […] (OD405). The absorbance was measured using a Tecan M1000 Pro monochromator plate reader. HC10 and HC50 (concentration at 10% and 50% hemolysis, respectively) were calculated by curve fitting the inhibition values vs. log (concentration) using a sigmoidal dose–response function with variable fitting values for top, bottom and slope.

[9] = test system: Acinetobacter baumannii ATCC19606; experiment: MIC, CO-ADD broth microdilution; format: cell-based; settings: mean (n = 2)
[10] = test system: Pseudomonas aeruginosa PAO1 or ATCC 27853; experiment: MIC, broth dilution (CA-SFM); format: cell-based; settings: mean (n = 3)

Structure (SMILES)	IC50 at 20 h [1]	MIC [2]	MIC [3]	MIC [4]	MIC [5]	MIC [6]	MIC [7]	Hemolysis (HC10, concentration at 10% hemolytic activity) [8]	MIC [9]	MIC [10]	activity towards MRSA [6]
O=C(CCc1ccccc1)NCCCNCCCCCCCNCCCNC(=O)CCc1ccccc1.O=C(O)C(F)(F)F.O=C(O)C(F)(F)F [Compound 13c, N^1,N^7-Bis(3-(3-phenylpropanamido)propyl)heptane-1,7-diaminium 2,2,2-trifluoroacetate]	> 43.4 µM	> 43.4 µM	> 43.4 µM	> 271 µM	> 43.4 µM	> 43.4 µM	> 43.4 µM	>43.4 µM	> 43.4 µM	> 271 µM	–
O=C(CCc1ccccc1)NCCCNCCCCCCCCNCCCNC(=O)CCc1ccccc1.O=C(O)C(F)(F)F.O=C(O)C(F)(F)F [Compound 13d, N^1,N^8-Bis(3-(3-phenylpropanamido)propyl)octane-1,8-diaminium 2,2,2-trifluoroacetate]	> 42.6 µM	> 42.6 µM	> 42.6 µM	> 266 µM	> 42.6 µM	> 42.6 µM	> 42.6 µM	>42.6 µM	> 42.6 µM	> 266 µM	–
O=C(CCc1ccccc1)NCCCNCCCCCCCCCCNCCCNC(=O)CCc1ccccc1.O=C(O)C(F)(F)F.O=C(O)C(F)(F)F [Compound 13e, N^1,N^10-Bis(3-(3-phenylpropanamido)propyl)decane-1,10-diaminium 2,2,2-trifluoroacetate]	> 41.1 µM	> 41.1 µM	41.1 µM	32 µM	41.1 µM	10.3 µM	> 41.1 µM	>41.1 µM	> 41.1 µM	642 µM	weak
O=C(CCc1ccccc1)NCCCNCCCCCCCCCCCCNCCCNC(=O)CCc1ccccc1.O=C(O)C(F)(F)F.O=C(O)C(F)(F)F [Compound 13f, N^1,N^12-Bis(3-(3-phenylpropanamido)propyl)dodecane-1,12-diaminium 2,2,2-trifluoroacetate]	> 39.7 µM	> 39.7 µM	> 39.7 µM	50 µM	> 39.7 µM	19.8 µM	> 39.7 µM	>39.7 µM	> 39.7 µM	300 µM	weak
O=C(CCC(=O)NCCCc1ccccc1)NCCCNCCCCNCCCNC(=O)CCC(=O)NCCCc1ccccc1.O=C(O)C(F)(F)F.O=C(O)C(F)(F)F [Compound 14a, N^1,N^4-Bis(3-(4-oxo-4-((3-phenylpropyl)amino)butanamido)propyl)butane-1,4-diaminium 2,2,2-trifluoroacetate]	> 37 µM	> 37 µM	> 37 µM	100 µM	> 37 µM	> 37 µM	> 37 µM	>37 µM	> 37 µM	> 200 µM	–
O=C(CCC(=O)NCCCc1ccccc1)NCCCNCCCCCCCCNCCCNC(=O)CCC(=O)NCCCc1ccccc1.O=C(O)C(F)(F)F.O=C(O)C(F)(F)F [Compound 14d, N^1,N^8-Bis(3-(4-oxo-4-((3-phenylpropyl)amino)butanamido)propyl)octane-1,8-diaminium 2,2,2-trifluoroacetate]	> 34.7 µM	> 34.7 µM	> 34.7 µM	> 100 µM	> 34.7 µM	> 34.7 µM	> 34.7 µM	>34.7 µM	> 34.7 µM	> 100 µM	–
O=C(CCC(=O)NCCCc1ccccc1)NCCCNCCCCCCCCCCNCCCNC(=O)CCC(=O)NCCCc1ccccc1.O=C(O)C(F)(F)F.O=C(O)C(F)(F)F [Compound 14e, N^1,N^10-Bis(3-(4-oxo-4-((3-phenylpropyl)amino)butanamido)propyl)decane-1,10-diaminium 2,2,2-trifluoroacetate]	> 33.7 µM	> 33.7 µM	33.7 µM	100 µM	33.7 µM	4.21 µM	> 33.7 µM	>33.7 µM	> 33.7 µM	> 200 µM	weak
